# According to the Kinase Knowledgebase extract (Sharma et al. 2016):
# Molecular target: EGFR (UniProt P00533)
# Assay: Inhibition of EGFR Kinase Activity
# EGFR, sequence (P00533 whole entry, looked up): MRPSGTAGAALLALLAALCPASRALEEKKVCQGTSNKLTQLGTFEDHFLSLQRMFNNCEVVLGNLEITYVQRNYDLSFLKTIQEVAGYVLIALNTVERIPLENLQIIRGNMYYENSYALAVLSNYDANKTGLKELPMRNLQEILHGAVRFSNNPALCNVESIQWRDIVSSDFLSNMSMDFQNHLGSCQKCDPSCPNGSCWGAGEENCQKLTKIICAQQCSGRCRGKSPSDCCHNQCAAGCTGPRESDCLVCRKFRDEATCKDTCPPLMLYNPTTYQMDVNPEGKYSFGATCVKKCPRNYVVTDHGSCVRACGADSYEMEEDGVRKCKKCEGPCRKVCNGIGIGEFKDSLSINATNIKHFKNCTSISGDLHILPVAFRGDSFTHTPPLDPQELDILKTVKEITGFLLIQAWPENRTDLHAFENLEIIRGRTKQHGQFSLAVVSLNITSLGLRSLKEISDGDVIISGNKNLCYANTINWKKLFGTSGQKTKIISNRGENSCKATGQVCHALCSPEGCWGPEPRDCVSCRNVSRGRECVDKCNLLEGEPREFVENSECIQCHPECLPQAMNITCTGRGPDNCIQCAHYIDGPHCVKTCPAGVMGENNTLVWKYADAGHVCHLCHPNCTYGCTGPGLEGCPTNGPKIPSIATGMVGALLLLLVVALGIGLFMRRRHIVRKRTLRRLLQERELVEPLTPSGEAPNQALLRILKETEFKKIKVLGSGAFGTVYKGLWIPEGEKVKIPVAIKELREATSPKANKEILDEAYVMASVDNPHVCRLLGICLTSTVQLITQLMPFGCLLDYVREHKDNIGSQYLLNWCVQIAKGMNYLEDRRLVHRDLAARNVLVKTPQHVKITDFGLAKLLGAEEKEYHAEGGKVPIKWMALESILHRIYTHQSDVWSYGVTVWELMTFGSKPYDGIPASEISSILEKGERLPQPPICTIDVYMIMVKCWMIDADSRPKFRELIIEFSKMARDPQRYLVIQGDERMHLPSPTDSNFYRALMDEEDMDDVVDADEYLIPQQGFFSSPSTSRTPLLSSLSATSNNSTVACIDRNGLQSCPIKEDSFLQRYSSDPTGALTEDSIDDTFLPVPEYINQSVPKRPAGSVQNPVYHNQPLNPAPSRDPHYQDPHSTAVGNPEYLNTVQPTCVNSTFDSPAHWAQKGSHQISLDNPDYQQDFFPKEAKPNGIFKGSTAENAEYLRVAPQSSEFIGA
row,SMILES,IC50 [µM]
1,C=CC(=O)Nc1ccc(Nc2ncnc(N(CC)c3ccc(OCCC)c(OCCC)c3)n2)cc1,< 50
2,C=CC(=O)Nc1ccc(Nc2ncnc(Nc3ccc4c(ccn4Cc4ccccc4)c3)n2)cc1,< 50
3,C=CC(=O)Nc1cc(Nc2ncnc(N(C)c3ccc4c(cnn4Cc4ccccc4)c3)n2)ccc1OC,< 50
4,CC#CC(=O)Nc1cccc(Nc2ncnc(N(C)c3ccc4c(cnn4Cc4ccccc4)c3)n2)c1,< 50
5,C=CC(=O)Nc1cccc(Nc2ncnc(N(CC)c3ccc(OCc4ccccc4)cc3)n2)c1,< 50
6,C=CC(=O)Nc1cc(Nc2ncnc(N(C)c3ccc4c(cnn4Cc4ccccc4)c3)n2)ccc1OCCCC1CCN(C)CC1,< 50
7,C=CC(=O)Nc1ccc(Nc2ncnc(N(C)n3c(=O)[nH]c4ccccc43)n2)cc1,< 50
8,CC#CC(=O)Nc1cccc(Nc2ncnc(N(CC)c3cccc(C)c3)n2)c1,< 50
9,CC#CC(=O)Nc1cccc(Nc2ncnc(Nc3ccc(C(=O)OC)cc3)n2)c1,< 50
10,C=CC(=O)N(OCCCC1CCN(C)CC1)c1cccc(Nc2ncnc(NN3CCCc4ccc(Cl)cc43)n2)c1,< 50
11,C=CCN(c1ncnc(Nc2ccc(NC(=O)C=C)cc2)n1)c1cccc2ccccc12,< 50
12,CC#CC(=O)Nc1cccc(Nc2ncnc(Nc3ccc(OCCOC)c(OC)c3)n2)c1,< 50
13,C=CCN(c1ccc(OC)c(OC)c1)c1ncnc(Nc2ccc(NC(=O)C=C)cc2)n1,< 50
14,CC#CC(=O)Nc1cccc(Nc2ncnc(N(C)c3ccc(OC)c(OC)c3)n2)c1,< 50
15,CC#CC(=O)Nc1cccc(Nc2ncnc(N(C)C3CC3c3ccccc3)n2)c1 (stereo not drawn),< 50
16,C=CC(=O)Nc1ccc(Nc2ncnc(N(C)c3ccc(OCc4ccccc4)cc3)n2)cc1,< 50
17,C=CC(=O)Nc1cc(Nc2ncnc(N(C)c3cccc(Cl)c3)n2)ccc1OCCCC1CCN(C)CC1,< 50
18,C=CC(=O)Nc1ccc(Nc2ncnc(N(CC)c3cccc(C(N)=O)c3)n2)cc1,< 50
19,C=CC(=O)Nc1cccc(Nc2ncnc(N(CC)c3ccc(C(=O)OC)cc3)n2)c1,< 50
20,CC#CC(=O)Nc1cccc(Nc2ncnc(N(C)c3cccc(C)c3)n2)c1,< 50
21,CC#CC(=O)Nc1cccc(Nc2ncnc(Nc3ccc(OC)c(OCCOC)c3)n2)c1,< 50

row,SMILES,IC50 [µM]
1,C=CC(=O)Nc1cccc(Nc2ncnc(N3CCCc4ccc(Cl)cc43)n2)c1,< 50
2,C=CC(=O)Nc1cccc(Nc2ncnc(Nc3cccc(C(N)=O)c3)n2)c1,< 50
3,CC#CC(=O)Nc1cccc(Nc2ncnc(N(CC)c3ccc(OCC)c(OCC)c3)n2)c1,< 50
4,C=CC(=O)Nc1cccc(Nc2ncnc(Nc3ccc(OC)c(OCCOC)c3)n2)c1,< 50
5,C=CCN(c1ccc(OCCOC)c(OC)c1)c1ncnc(Nc2cccc(NC(=O)C=C)c2)n1,< 50
6,C=CCN(c1cc(OC)c(OC)c(OCCN2CCOCC2)c1)c1ncnc(Nc2ccc(NC(=O)C=C)cc2)n1,< 50
7,CC#CC(=O)Nc1cccc(Nc2ncnc(n2)N(C)c3ccc4NN(=Cc4c3)Cc5ccccn5)c1,< 50
8,C=CC(=O)Nc1ccc(Nc2ncnc(N(C)c3cccc(Cl)c3)n2)cc1,< 50
9,C=CC(=O)Nc1cccc(Nc2ncnc(Nc3ccc(OCc4ccc(F)c(F)c4)c(F)c3)n2)c1,< 50
10,CC#CC(=O)Nc1cc(Nc2ncnc(N(C)c3ccc4c(ccn4Cc4ccccc4)c3)n2)ccc1OCCCN1CCOCC1,< 50
11,CC#CC(=O)Nc1cccc(Nc2ncnc(Nc3cccc(C(N)=O)c3)n2)c1,< 50
12,C=CCN(c1cccc(S(=O)(=O)c2ccc([N+](=O)[O-])cc2)c1)c1ncnc(Nc2cccc(NC(=O)C=C)c2)n1,< 50
13,CC#CC(=O)Nc1cccc(Nc2ncnc(N(C)c3ccc(OCCC)c(OCCC)c3)n2)c1,< 50
14,C=CCN(c1ncnc(Nc2cccc(NC(=O)C=C)c2)n1)c1cc(Cl)ccc1C,< 50
15,C=CCN(c1cccc(C(N)=O)c1)c1ncnc(Nc2cccc(NC(=O)C#CC)c2)n1,< 50
16,C=CCN(c1ccc(OCc2ccccc2)cc1)c1ncnc(Nc2ccc(NC(=O)C=C)cc2)n1,< 50
17,C=CC(=O)Nc1cccc(Nc2ncnc(Nc3ccc(OCc4ccccc4)c(Cl)c3)n2)c1,< 50
18,C=CC(=O)Nc1ccc(Nc2ncnc(N(CC)c3cc(Cl)cc4ccccc34)n2)cc1,< 50
19,C=CCN(c1ccc(OCCOC)c(OC)c1)c1ncnc(Nc2ccc(NC(=O)C=C)cc2)n1,< 50
20,C=CCN(c1cccc(CC(=O)OC)c1)c1ncnc(Nc2ccc(NC(=O)C=C)cc2)n1,< 50
21,CN(c1ccc2NN(=Cc2c1)Cc3ccccn3)c4ncnc(Nc5ccc(NC(=O)C=C)cc5)n4,< 50

row,SMILES,IC50 [µM]
1,C=CC(=O)Nc1cccc(Nc2ncnc(Nc3ccc(OCc4ccc(Cl)c(Cl)c4)c(C(F)(F)F)c3)n2)c1,< 50
2,C=CC(=O)Nc1cccc(Nc2ncnc(N(C)c3ccc(OCCO)cc3)n2)c1,< 50
3,C=CC(=O)Nc1ccc(Nc2ncnc(N(C)c3cccc4ccccc34)n2)cc1,< 50
4,C=CCN(c1ccc(OCc2ccccc2)cc1)c1ncnc(Nc2cccc(NC(=O)C=C)c2)n1,< 50
5,CC#CC(=O)Nc1cccc(Nc2ncnc(N(C)c3ccc(F)c(Cl)c3)n2)c1,< 50
6,C=CCN(c1cccc(S(=O)(=O)c2ccc([N+](=O)[O-])cc2)c1)c1ncnc(Nc2cccc(NC(=O)C#CC)c2)n1,< 50
7,C=CC(=O)Nc1cccc(Nc2ncnc(Nc3cc(OC)c(OC)c(OC)c3)n2)c1,< 50
8,CC#CC(=O)Nc1cccc(Nc2ncnc(Nc3ccc(OCCO)cc3)n2)c1,< 50
9,C=CC(=O)Nc1cc(Nc2ncnc(Nc3ccc(OCc4ccccc4)c(Cl)c3)n2)ccc1OCCCC1CCN(C)CC1,< 50
10,C=CC(=O)N1CCc2ccc(Nc3ncnc(Nc4ccc5c(cnn5Cc5ccccc5)c4)n3)cc21,< 50
11,C=CC(=O)Nc1cc(Nc2ncnc(N(C)c3ccc4c(ccn4Cc4ccccc4)c3)n2)ccc1OCCCC1CCN(C)CC1,< 50
12,C=CC(=O)Nc1cccc(Nc2ncnc(N(C)c3cccc(S(=O)(=O)c4ccc([N+](=O)[O-])cc4)c3)n2)c1,< 50
13,C=CCN(c1ccc2c(cnn2Cc2ccccc2)c1)c1ncnc(Nc2cccc(NC(=O)C=C)c2)n1,< 50
14,C=CC(=O)Nc1cccc(Nc2ncnc(Nc3ccc4c(ccn4Cc4ccccc4)c3)n2)c1,< 50
15,C=CC(=O)Nc1cccc(Nc2ncnc(N(CC)c3cccc(S(=O)(=O)c4ccc([N+](=O)[O-])cc4)c3)n2)c1,< 50
16,C=CC(=O)Nc1cccc(Nc2ncnc(Nc3ccc4c(cnn4Cc4cccc(F)c4)c3)n2)c1,< 50
17,C=CC(=O)Nc1cccc(Nc2ncnc(N(CC)c3cc(Cl)cc4ccccc34)n2)c1,< 50
18,C=CC(=O)Nc1cccc(Nc2ncnc(NN3CCCc4c(Cl)cccc43)n2)c1,< 50
19,C=CC(=O)Nc1ccc(Nc2ncnc(N(C)c3cc(OC)c(OC)c(OCCN4CCOCC4)c3)n2)cc1,< 50
20,C=CC(=O)Nc1ccc(Nc2ncnc(Nc3cccc(S(=O)(=O)c4ccc([N+](=O)[O-])cc4)c3)n2)cc1,< 50
21,C=CC(=O)Nc1cccc(Nc2ncnc(N(CC)n3c(=O)[nH]c4ccccc43)n2)c1,< 50

# The next lines start with the values.
row,IC50 [µM],SMILES
1,< 50,C=CC(=O)N(CCCN1CCOCC1)c1cccc(Nc2ncnc(Nc3ccc4c(cnn4Cc4ccccc4)c3)n2)c1
2,< 50,C=CC(=O)N(CCCN1CCOCC1)c1cccc(Nc2ncnc(N(C)C3CC3c3ccccc3)n2)c1 (stereo not drawn)
3,< 50,C=CC(=O)Nc1cc(Nc2ncnc(Nc3cccc(Cl)c3)n2)ccc1OCCCC1CCN(C)CC1
4,< 50,C=CC(=O)Nc1cccc(Nc2ncnc(N(CC)n3c(=O)n(C(=O)C(C)(C)C)c4ccccc43)n2)c1
5,< 50,C=CC(=O)Nc1cccc(Nc2ncnc(Nc3cccc(S(=O)(=O)c4ccc([N+](=O)[O-])cc4)c3)n2)c1
6,< 50,C=CCN(c1ncnc(Nc2cccc(NC(=O)C=C)c2)n1)n1c(=O)n(C(=O)C(C)(C)C)c2ccccc21
7,< 50,C=CC(=O)N(CCCN1CCOCC1)c1cccc(Nc2ncnc(Nc3cccc4ccccc34)n2)c1
8,< 50,C=CC(=O)Nc1ccc(Nc2ncnc(Nc3ccc(OCC)c(OCC)c3)n2)cc1
9,< 50,C=CC(=O)Nc1ccc(Nc2ncnc(Nn3c(=O)n(C(=O)C(C)(C)C)c4ccccc43)n2)cc1
10,< 50,CC#CC(=O)Nc1cc(Nc2ncnc(Nc3ccc(OCc4ccccc4)c(Cl)c3)n2)ccc1OCCCN1CCOCC1
11,< 50,C/C=C/C(=O)Nc1cccc(Nc2ncnc(Nc3ccc4c(ccn4Cc4ccccc4)c3)n2)c1
12,< 50,C=CC(=O)Nc1cccc(Nc2ncnc(Nc3ccc(OCc4cccc(F)c4)cc3)n2)c1
13,< 50,C=CC(=O)Nc1ccc(Nc2ncnc(N(C)C3CC3c3ccc(Cl)cc3)n2)cc1 (stereo not drawn)
14,< 50,CC#CC(=O)Nc1cccc(Nc2ncnc(N(CC)c3cc(OC)c(OC)c(OCCN4CCOCC4)c3)n2)c1
15,< 50,C=CCC(=O)Nc1cccc(Nc2ncnc(Nc3ccc4NN(=Cc4c3)Cc5ccccn5)n2)c1
16,< 50,CC#CC(=O)Nc1cccc(Nc2ncnc(N(C)c3cc(Cl)ccc3C)n2)c1
17,< 50,C=CC(=O)Nc1cccc(Nc2ncnc(N(CC)c3cccc(Cl)c3)n2)c1
18,< 50,CC#CC(=O)Nc1cccc(Nc2ncnc(Nc3cccc(C)c3)n2)c1
19,< 50,C=CC(=O)N(CCCN1CCOCC1)c1cccc(Nc2ncnc(Nc3cc(Cl)cc4ccccc34)n2)c1
20,< 50,CC#CC(=O)Nc1cccc(Nc2ncnc(Nc3ccc(OCCC)c(OCCC)c3)n2)c1
21,< 50,C=CC(=O)Nc1ccc(Nc2ncnc(N(C)c3cc(Cl)cc4ccccc34)n2)cc1
22,< 50,C=CC(=O)Nc1ccc(Nc2ncnc(N(CC)c3ccc(OC)c(OCCOC)c3)n2)cc1
23,< 50,CC#CC(=O)Nc1cccc(Nc2ncnc(N(CC)C3CC3c3ccc(Cl)cc3)n2)c1 (stereo not drawn)
24,< 50,C=CCN(c1ccc(OCC)c(OCC)c1)c1ncnc(Nc2cccc(NC(=O)C#CC)c2)n1
25,< 50,CC#CC(=O)Nc1cccc(Nc2ncnc(NC3CC3c3ccccc3)n2)c1 (stereo not drawn)
26,< 50,C=CC(=O)Nc1ccc(Nc2ncnc(N(C)c3ccc(OCCC)c(OCCC)c3)n2)cc1
27,< 50,CC#CC(=O)Nc1cccc(Nc2ncnc(N(CC)c3cccc(C(N)=O)c3)n2)c1
28,< 50,CC#CC(=O)Nc1cccc(Nc2ncnc(N(C)c3ccc(OCC)c(OCC)c3)n2)c1
29,< 50,CC#CC(=O)Nc1cccc(Nc2ncnc(Nc3cc(Cl)ccc3C)n2)c1
30,< 50,C=CC(=O)Nc1cccc(Nc2ncnc(N(C)c3cccc(C)c3)n2)c1
